The values that follow come from patent US20160175313A1, “ENTECAVIR MICROSPHERES AND PHARMACEUTICAL COMPOSITION FOR PARENTERAL ADMINISTRATION CONTAINING SAME” (priority 2013, published 2016).

Each structure is given as a SMILES string.

For orientation: bioavailability means dose-corrected exposure relative to a reference, in per cent.

Data set [1] is described as follows: Solubility of entecavir in organic solvent. It is filed as physicochemical.
The subject of another data set is rats. How it is done: A test was conducted to determine whether local irritation is caused by subcutaneous administration of entecavir into rats.
After entecavir (2.33 mg/kg/day) was subcutaneously injected into 15 male rats per each group, mortality, common symptoms, body weight, autopsy and histopathological evaluation on 1, 4, 5, 8 and 12 weeks were checked to compare with the control group in which excipient was administered.

The next data set concerns HBV. To be noted: first-time patients, oral preparations, cited from earlier work.
For data set [2] the following is noted: orally administered; cited from earlier work.
[3] abbreviates: rat, in vivo, sc, 2.33 mg/kg/day.

As to `C=C1[C@H](CO)[C@@H](O)C[C@@H]1n1cnc2c(=O)[nH]c(N)nc21` [entecavir, Entecavir], the “solubility in methylene chloride” value in data set [1] is “insoluble”. In the data set with rats (male rats, 2.33 mg/kg/day subcutaneous, checked up to 12 weeks), the mortality entry is “no dead animal was observed”. Also, the “local toxicity, overall conclusion” value in the data set on rats (rat, in vivo, sc) is “did not show harmful local toxicity”. Besides, in the data set on rats (setting [3]), the “abnormal symptoms and abnormal body weight change related to administration” value was “not observed”; the autopsy results is recorded as “no abnormal finding”; the “inflammation (histopathology)” value was “inflammation was observed”; the recovery from inflammation entry was “all animals recovered from inflammation”. For the same compound, the “injection site microscopy (H&E staining), inflammatory cells” value in the data set with rats (rats, 4 weeks after subcutaneous administration, 2.33 mg/kg/day) was “some subcutaneous tissue inflammatory cells were observed”. Moreover, the “patients HBV-undetectable after 1 year of administration” value with HBV (1 year) was “about 70%”. Moreover, the “patients HBV-undetectable after 3 years” value with HBV (3 years) was “about 90%”. The bioavailability in data set [2] is on record as roughly 100%.
